Laboratory results reported in paper PMC3479105, “K-134, a Phosphodiesterase 3 Inhibitor, Prevents Brain Damage by Inhibiting Thrombus Formation in a Rat Cerebral Infarction Model” (PLoS ONE, 2012).
Where two headings read alike, the source gives them in different places. Marks after values point to notes of the source that are not given here.

Assays:
[1] = tested on: photothrombotic middle cerebral artery (MCA) occlusion; experiment: Photothrombotic MCA occlusion time in rat stroke model; format: in vivo; conditions: SD rats, n = 12, control 4.1±0.4 min
Method: (§1) Brain infarction was produced by photothrombotic MCA occlusion essentially as reported previously. K-134 and cilostazol were administered to SD rats 2 h and 3 h before irradiation for MCA occlusion, respectively (n = 12), because K-134 reached plasma peak levels at 1–2 h, and cilostazol and its active metabolites (OPC-13015 and OPC-13213) reached at >3 h (Table S1) after oral administration in conscious male SD rats under fed conditions. Rats were anesthetized by intraperitoneal administration of 50 mg/kg of sodium pentobarbital (Kyoritsu Pharmaceutical Co., Ltd., Nara, Japan). Then, a polyethylene catheter for administration of rose bengal was placed in the left femoral vein. Rats were mounted on a brain stereotactic apparatus, and body temperature was maintained at 37°C with a heating pad. The left temporalis muscle was partially cut after incision of the scalp, and craniotomy was performed using a dental drill under an operating microscope. The fiber of a xenon lamp (Model L-4887; Hamamatsu Photonics Co., Ltd., Shizuoka, Japan) was placed on the MCA for irradiation (wavelength: 540 nm, 800000 lux), and the probe of the laser Doppler flow meter (ALF21R; Advance Co., Ltd., Tokyo, Japan) was placed on the MCA distal to the fiber. After 2 min of irradiation, rose bengal (25 mg/kg/mL; Sigma Aldrich Co., MO, USA) was injected for the next 2 min. The MCA was continuously irradiated for 8 min. Blood flow was measured for 18 min from the commencement of irradiation. The MCA occlusion time was determined from blood flow data. When blood flow continued beyond the observation period, the occlusion time was regarded as 16 min. After surgery, the incision site was closed with sutures, and rats were returned to their cages.

[2] = tested on: photothrombotic cerebral infarction model; experiment: Infarct volume 24 h after photothrombotic MCA occlusion; format: in vivo, rat; conditions: for infarct volume: 24 h after MCA occlusion, control 131.4±18.9 mm^3; for bleeding in the cerebrum observed macroscopically: rats treated with K-134 and cilostazol in photothrombotic stroke model
Method: as §1
Twenty-four hours after MCA occlusion, rats were sacrificed by an overdose of pentobarbital and cutting an abdominal vein. The brain was immediately removed, cooled with cold spray (Pip Co., Ltd., Osaka, Japan), and cut into six slices (2 mm thick) using a slicer (RBSC-02; Neuro Science Inc., Tokyo, Japan) and razor (FA-10; Feather Razor, Co., Ltd., Osaka, Japan). The cutting base point (0 mm) was set at the position of bregma, and brains were cut at −2, −4, 0, +2, +4, +6, +8 mm from the base point. The brain slices were stained with 1% (w/v) 2,3,5-triphenyl-2H-tetrazolium chloride (TTC; Tokyo Chemical Industry Co., Ltd., Tokyo, Japan) in saline solution at 37°C for 20 min. The stained slices were photographed with a digital camera (CAMEDIA E-10; Olympus Co., Ltd., Tokyo, Japan). Whole brain areas and infarcted areas were quantified by image analysis (Win ROOF; Mitani Co., Ltd., Tokyo, Japan), and infarct volume were calculated with the trapezoidal rule.

rat platelet aggregation = experiment: Rat platelet aggregation in vitro (PRP, aggregometer); format: cell-based
Method: Platelet-rich plasma (PRP) was prepared by centrifugation (900 rpm, 15 min, at room temperature) of blood (05PR-22 centrifuge with a 03 rotor; Hitachi, Ltd., Tokyo, Japan), and the platelet count was adjusted to 5×10^5/µL with platelet-poor plasma prepared by centrifugation (3000 rpm, 10 min, at room temperature). PRP was incubated with antiplatelet agents at 37°C for 3 min and stimulated with collagen (final concentration, 15 µg/mL; MC Medical Inc., Tokyo, Japan) or adenosine diphosphate (ADP) (final concentration, 7.5 µM; MC Medical Inc.) (n = 5). Platelet aggregation was quantified by measuring the area under the curve (AUC) during the 5-min period after addition of trigger using a light transmittance aggregometer (PAM-8C; Mebanix Co., Ltd., Tokyo, Japan).

[3] = tested on: arteriovenous shunt thrombus formation; experiment: Arteriovenous shunt thrombosis model; format: in vivo, rat; conditions: for Occluded/Total: n = 12, control 11/12; for Occlusion (%): control 92; for ED50: Rattus norvegicus, rats, single oral dose 90 min before creation of the arteriovenous shunt, read-out: ED50, incidence of occlusive shunt thrombi
Excerpt: (§2) Immediately after a single oral administration of the test compound, SD rats were anesthetized by subcutaneous injection of 1.2 g/kg of urethane (n = 12). Ninety minutes after oral administration of a single dose of K-134 or cilostazol, one end of a polyethylene catheter (size 3, 24 cm; Hibiki, Tokyo, Japan) filled with physiological saline was inserted into the left jugular vein, with the other end of the catheter inserted into the right common carotid artery to create a loop. The end of the catheter was removed from the jugular vein 4 h after creation of the loop. A thrombus was then regarded to have been formed when blood no longer ran from the catheter. […] The serum concentrations of K-134 and cilostazol were determined by high-performance liquid chromatography (HPLC).

[4] = Plasma concentration in rat arteriovenous shunt model; format: in vivo; conditions: SD, n = 6
Excerpt: as §2

[5] = Electron spin resonance (ESR) radical scavenging; conditions: ESR experiments, data not shown
Excerpt: In the photothrombotic cerebral infarction model, photoactivation of rose bengal by illumination with green light results in reactive oxygen intermediates (predominantly singlet oxygen and superoxide). […] Therefore, we concluded that the observed inhibitory effects of K-134 on photothrombosis in this model are relevant to its antiplatelet activity but not radical scavenging activity.

PDE2 = tested on: PDE2; design: method as in PMID 10644042; conditions: read-out: IC50 toward PDE2; cited from earlier work
PDE3A = tested on: PDE3A; design: method as in PMID 10644042; conditions: read-out: IC50 toward PDE3A; cited from earlier work
PDE3B = tested on: PDE3B; design: method as in PMID 10644042; conditions: read-out: IC50 toward PDE3B; cited from earlier work
PDE4 = tested on: PDE4; design: method as in PMID 10644042; conditions: read-out: IC50 toward PDE4; cited from earlier work
PDE5 = tested on: PDE5; design: method as in PMID 10644042; conditions: read-out: IC50 toward PDE5; cited from earlier work
[6] = ADP 7.5 µM, n = 5, read-out: IC50, rat platelet aggregation induced by ADP
[7] = collagen 15 µg/mL, n = 5, read-out: IC50, rat platelet aggregation induced by collagen

| Compound | bleeding in the cerebrum observed macroscopically [2] | IC50 (rat platelet aggregation; [6]) | IC50 (rat platelet aggregation; [7]) | Inhibition (%) of arteriovenous shunt thrombus formation ([3]; 10 mg/kg single oral dose) | Occluded/Total ([3]; 10 mg/kg single oral dose) | Occlusion (%) ([3]; 10 mg/kg single oral dose) | Inhibition (%) of arteriovenous shunt thrombus formation ([3]; 30 mg/kg single oral dose) | Occluded/Total ([3]; 30 mg/kg single oral dose) | Occlusion (%) ([3]; 30 mg/kg single oral dose) | ED50 [3] | scavenging activities against singlet oxygen and superoxide anion radical [5] | IC50 (PDE2) | IC50 (PDE3A) | IC50 (PDE3B) | IC50 (PDE4) | IC50 (PDE5) | also measured |
| --- | --- | --- | --- | --- | --- | --- | --- | --- | --- | --- | --- | --- | --- | --- | --- | --- | --- |
| O=C(NCCCOc1ccc2[nH]c(=O)ccc2c1)N(C1CC1)[C@@H]1CCCC[C@H]1O [K-134] | No bleeding | 3.2 µM | 2.5 µM | 64% | 4/12* | 33% | 64% | 4/12* | 33% | 11 mg/kg | did not show scavenging activities | > 300 µM | 0.1 µM | 0.28 µM | > 300 µM | 12.1 µM | MCA occlusion time ([1]; 10 mg/kg oral preadministration, mean ± SEM): 7.9 ± 1.1 min; MCA occlusion time ([1]; 30 mg/kg oral preadministration, mean ± SEM): 9.1 ± 1.6 min; infarct volume ([2]; 10 mg/kg oral, not significant): 92.0±14.7 mm^3; infarct volume ([2]; 30 mg/kg oral, significant): 62.1±12.9 mm^3; Inhibition (%) of arteriovenous shunt thrombus formation ([3]; 3 mg/kg single oral dose): 18%; Occluded/Total ([3]; 3 mg/kg single oral dose): 9/12; Occlusion (%) ([3]; 3 mg/kg single oral dose): 75%; Cmax ([4]; 10 mg/kg oral): 430 ± 80 nM |
| O=C1CCc2cc(OCCCCc3nnnn3C3CCCCC3)ccc2N1 [cilostazol] | No bleeding | 83 µM | 42 µM | 37% | 7/12 | 58% | 64% | 4/12* | 33% | 18 mg/kg | did not show scavenging activities | 45.2 µM | 0.2 µM | 0.38 µM | 88 µM | 4.4 µM | MCA occlusion time ([1]; 300 mg/kg oral preadministration, not statistically significant): 6.9 ± 1.3 min; infarct volume ([2]; 300 mg/kg oral, not significant): 95.8±14.8 mm^3; Inhibition (%) of arteriovenous shunt thrombus formation ([3]; 100 mg/kg single oral dose): 73%; Occluded/Total ([3]; 100 mg/kg single oral dose): 3/12**; Occlusion (%) ([3]; 100 mg/kg single oral dose): 25%; Cmax ([4]; 30 mg/kg oral): 2080 ± 280 nM |
